Experimental findings from publication PMC3715121 (Journal of natural products, 2009) are described below.

In data set [1] the test system is KB (human epidermoid carcinoma). Briefly: Cytotoxicity assay, KB. Conditions: 48 h, read-out: IC50 KB. Format: cell-based.
The subject of data set [2] is P. falciparum Sierra Leone D6 (chloroquine-sensitive). Briefly: Antimalarial/parasite LDH assay, D6 clone. Format: cell-based. Conditions: Plasmodium falciparum, D6, 72 h, read-out: P. falciparum D6 IC50.
For data set [3], the system named is Mycobacterium intracellulare ATCC 23068. As to the kind of experiment: Antimicrobial assay, M. intracellulare. Conditions: for MIC: ATCC23068, read-out: MIC, M. intracellulare. Format: cell-based.
Data set [4] deals with RBC. Briefly: Hemolytic activity. Conditions: from IC50 (RBC lysis).
The test system of data set [5] is P. berghei (NK-65 strain). As to the kind of experiment: In vivo antimalarial assay.
The test system of data set [6] is methicillin-resistant Staphylococcus aureus ATCC 43300. Briefly: Antimicrobial assay, MRSA. Format: cell-based. As to conditions: ATCC43300|MRSA; for MBC: read-out: MBC, MRSA; for MIC: read-out: MIC, MRSA.
Data set [7] relates to SK-MEL (human malignant melanoma). As to the kind of experiment: Cytotoxicity assay, SK-MEL. As to conditions: 48 h, read-out: IC50 SK-MEL. Format: cell-based.
The subject of data set [8] is Candida albicans ATCC 90028. Briefly: Antimicrobial assay, C. albicans. As to conditions: ATCC90028, read-out: IC50, C. albicans. The class given is cell-based.
The test system of data set [9] is L. donovani promastigotes. As to the kind of experiment: Antileishmanial assay. The class given is cell-based. As to conditions: Leishmania donovani, 48 h, read-out: L. donovani IC50.
Data set [10] relates to Aspergillus fumigatus ATCC 90906. Briefly: Antimicrobial assay, A. fumigatus. The class given is cell-based. Conditions: ATCC90906, read-out: IC50, A. fumigatus.
The test system of data set [11] is Cryptococcus neoformans ATCC 90113. Briefly: Antimicrobial assay, C. neoformans. The class given is cell-based.

In brackets after ≈: the same amount, converted by molar mass. Where only a bound is given, the exact number is not on record here.

On to `C[C@@H]1[C@H](O)[C@@H](C)/C=C/C=C/C=C/C=C/C=C/C=C/C=C/[C@H](O[C@@H]2O[C@H](C)[C@@H](O)[C@H](N)[C@@H]2O)C[C@@H]2O[C@](O)(C[C@@H](O)C[C@@H](O)[C@H](O)CC[C@@H](O)C[C@@H](O)CC(=O)O[C@H]1C)C[C@H](O)[C@H]2C(=O)O` [Amphotericin B], for which the 50% inhibitory concentration (IC50) in [1] is over 25 µg/mL.
With `CCN(CC)CCCC(C)Nc1ccnc2cc(Cl)ccc12` (stereo not drawn) [Chloroquine, chloroquine, reference compound], the IC50 in data set [2] was found to be 0.017 µg/mL (≈ 0.0531 µM).
`O=C(O)c1cn(C2CC2)c2cc(N3CCNCC3)c(F)cc2c1=O` [Ciprofloxacin, reference compound]: the IC50 in [3] (ATCC23068, read-out: IC50, M. intracellulare) came to 0.25 µg/mL (≈ 0.754 µM).
With `C[C@@H]1N[C@H](CCCCCCCCCCc2cc(CCCCCCCCCC[C@@H]3CC[C@H](O)[C@@H](C)N3)c3[n+](c2)CCC3)CC[C@H]1O.[Cl-]` [Compound 1], the “fold less toxic than amphotericin B in regard to hemolytic activity” value in data set [4] is over 4 fold. The MIC in [3] came to 2.5 µg/mL. Further, the “Cure (mice without parasitemia till day 28/total mice in group)” value in data set [5] (1 mg/kg × 3 days, ip) is given as 0/5; in data set [5] (2 mg/kg × 3 days, ip) it was 0/5. For the same molecule, the “toxicity observed due to treatment” value in data set [5] (1 and 2 mg/Kg/day for 3 days, ip, mice) is recorded as “no significant toxicity”.
As for `C[C@@H]1N[C@H](CCCCCCCCCCC2=C[C@@H](CCCCCCCCCC[C@@H]3CC[C@@H](O)[C@H](C)N3)[C@@H]3CCCN3C2)CC[C@H]1O` [Compound 2, 6,8-bis-[(2R,5R,6R)-5-hydroxy-6-methylpiperidin-2-yl]decyl-[8R,8aS]-6,7-dehydroindolizidine], the values for the MIC in data set [3] and in data set [6] were 5 µg/mL (≈ 7.94 µM) and 2.5 µg/mL (≈ 3.97 µM), respectively. The MBC in [6] came out at 10 µg/mL (≈ 15.9 µM). For the same molecule, the IC50 in [7] is under 1.1 µg/mL.
Regarding `C[C@H]1N[C@@H](CCCCCCCCCCC2=C[C@@H](CCCCCCCCCC[C@@H]3CC[C@H](O)[C@@H](C)N3)[C@@H]3CCCN3C2)CC[C@H]1O` [Compound 3, Isoprosopilosine], in [3], the MIC amounted to 5 µg/mL (≈ 7.94 µM). Also, the IC50 is over 20 µg/mL in data set [8] and under 1.1 µg/mL in [7].
As to `C[C@@H]1N[C@H](CCCCCCCCCCc2cc(CCCCCCCCCC[C@H]3CC[C@@H](O)[C@@H](C)N3)c[n+]3c2CCC3)CC[C@H]1O` [Compound 4, Isoprosopilosidine], the IC50 in data set [2] is 0.042 µg/mL; in data set [8], over 20 µg/mL; in data set [9], 0.8 µg/mL.
As for `C[C@H]1N[C@@H](CCCCCCCCCCC2=C[C@@H](CCCCCCCCCC[C@H]3CC[C@@H](O)[C@@H](C)N3)[C@@H]3CCCN3C2)CC[C@H]1O` [Compound 5, juliprosopine], in data set [3] (ATCC23068, read-out: MBC, M. intracellulare), the MBC was 20 µg/mL (≈ 31.7 µM). Also, in data set [3], the MIC was determined as 20 µg/mL (≈ 31.7 µM). Moreover, the IC50 in data set [8] was over 20 µg/mL.
Regarding `C[C@@H]1N[C@H](CCCCCCCCCCc2cc(CCCCCCCCCC[C@@H]3CC[C@@H](O)[C@H](C)N3)c3[n+](c2)CCC3)CC[C@H]1O.[Cl-]` [Compound 6, Prosopilosidine dihydrochloride], the MBC in data set [6] was determined as 5 µg/mL. Further, in [10], the IC50 was over 20 µg/mL.
For `C[C@@H]1N[C@H](CCCCCCCCCCC2=C[C@@H](CCCCCCCCCC[C@@H]3CC[C@@H](O)[C@H](C)N3)[C@@H]3CCCN3C2)CC[C@H]1O.Cl.Cl` [Compound 7, Prosopilosine dihydrochloride], the IC50 was over 20 µg/mL in [8], 3.1 µg/mL in data set [9] and over 20 µg/mL in data set [10]. The MBC in [6] is 5 µg/mL. In addition, the MIC was 5 µg/mL in [6] and 5 µg/mL in [11] (ATCC90113, read-out: MIC, C. neoformans). Besides, the MFC in data set [11] (ATCC90113, read-out: MFC, C. neoformans) stood at 5 µg/mL.
Turning to `C[C@H]1N[C@@H](CCCCCCCCCCC2=C[C@@H](CCCCCCCCCC[C@@H]3CC[C@H](O)[C@@H](C)N3)[C@@H]3CCCN3C2)CC[C@H]1O.Cl.Cl` [Compound 8, Isoprosopilosine dihydrochloride], in [6], the MBC came out at 5 µg/mL and the MIC amounted to 5 µg/mL.
As to `CCO[C@H]1O[C@@H]2O[C@@]3(C)CC[C@H]4[C@H](C)CC[C@@H]([C@H]1C)[C@@]24OO3` [β-Arteether, β-arteether, reference compound], the “Cure (mice without parasitemia till day 28/total mice in group)” value in [5] (10 mg/kg × 3 days) is reported as 5/5.

A word on the IC50: it is the concentration needed to halve the response being measured. What is called MIC is the lowest concentration that inhibits growth of the organism. As a reminder, the MBC is the lowest tested concentration that kills the bacteria rather than only halting them.
